Test results taken from US9340577B2, “HLA binding motifs and peptides and their uses” (priority 1992, dated 2016).
No end group written: not given here.

How the values were obtained:
Test in all cases: biochemical
DR1 (DRB1*0101) = DR1 (DRB1*0101) (Homo sapiens, UniProt P01903+P01911, A100R/D57E/F55L/F60I/F76Y/I96L/L162R/M171V/P40L/Q125E/R42F/V115G/Y59C); format: binding
DR4w4 (DRB1*0401) = DR4w4 (DRB1*0401) (Homo sapiens, UniProt P01903+P01911, A100K/A169T/F76Y/I96L/K127E/L162R/M171V/N62H/P40V/Q125Y/R42H/S133A/S149N/S66Y/V115G/V209L/W38E); format: binding
DR7 (DRB1*0701) = DR7 (DRB1*0701) (Homo sapiens, UniProt P01903+P01911, A100R/A102G/A103Q/D57E/D86V/E43K/F76Y/K127E/L162R/M171V/P40G/Q125H/Q99D/R33Q/R42Y/R54Q/S133A/S66F/T210M/V115G/Y107V/Y59L/Y89S); format: binding
DRB1*0301 = DRB1*0301 (Homo sapiens, UniProt P01903+P01911, A100K/A102G/A103R/A169T/F55Y/I96L/K41T/L162R/M171V/P40S/Q125H/Q178H/Q39Y/R42S/S66N/T106N/T262R/W38E/Y61H); format: binding
DRB1*0405 = DRB1*0405 (Homo sapiens, UniProt P01903+P01911, A100R/A169T/D86S/F76Y/I96L/K127E/L162R/M171V/N62H/P40V/Q125Y/R42H/S133A/S149N/S66Y/V115G/V209L/W38E); format: binding
DRB1*0802 = DRB1*0802 (Homo sapiens, UniProt P01903+P01911, A100R/A103L/A169T/F76Y/H45Y/I96F/K41T/L162R/M171V/P40S/Q125H/Q178H/Q39Y/Q99D/R218S/R42G/S66Y/V115G/W38E); format: binding
DRB1*0901 = DRB1*0901 (Homo sapiens, UniProt P01903+P01911, A100R/A103E/D57H/D86V/F55Y/F60I/F76Y/I96F/K127E/L162R/M171V/P40D/Q125H/Q99R/R33Q/R42F/S133A/S66N/T210M/V115G/W38K/Y107V/Y59G/Y89S); format: binding
DRB1*1201 = DRB1*1201 (Homo sapiens, UniProt P01903+P01911, A100R/A169T/D57E/D86V/F55L/H45Y/K41T/L162R/M171V/P40S/Q125H/Q178H/Q39Y/Q99D/R42G/S66L/T262R/V114A/V67L/W38E/Y59H/Y61H/Y89S); format: binding
DRB1*1302 = DRB1*1302 (Homo sapiens, UniProt P01903+P01911, A100E/A169T/K41T/L162R/M171V/P40S/Q125H/Q178H/Q39Y/Q99D/R42S/S66N/T262R/V115G/W38E/Y61H); format: binding
DRB1*1501 = DRB1*1501 (Homo sapiens, UniProt P01903+P01911); format: binding
DRB3*0101 = DRB3*0101 (Homo sapiens, UniProt P01903+P79483); format: binding
DRB4*0101 = DRB4*0101 (Homo sapiens, UniProt P01903+P13762, G164S); format: binding
DRB5*0101 = DRB5*0101 (Homo sapiens, UniProt P01903+Q30154); conditions: Binding affinity DRB5 *0101
HLA-A1 (A*0101) = HLA-A1 (A*0101) (Homo sapiens, UniProt P04439, A114D/A174V/A182V/D101N/D185E/E176A/E190D/L180R/Q94H/R68K/S129P/T187R/V100A/V91M/W191G); format: binding
A*2902 = A*2902 (Homo sapiens, UniProt P04439, A270S/D101N/D185E/E176V/E277Q/E87Q/F33T/G231S/H175R/I121M/I218V/I322F/K168Q/L300P/L318F/M331R/P208A/P217A/Q86L/T323A/T345S/V100A/V358M); format: binding
DRB1*1101 = DRB1*1101 (Homo sapiens, UniProt P01903+P01911, A100R/A169T/A87E/I96F/K41T/L162R/M171V/P40S/Q125H/Q178H/Q39Y/Q99D/R42S/S66Y/T262R/V115G/W38E); conditions: Binding affinity DRB1 *1101
A*3002 = A*3002 (Homo sapiens, UniProt P04439, D101N/D140H/D185E/E176R/F33S/G80R/H175R/K168Q/Q94H/R138E/R41S/V100E); format: binding
Chain of A*3002 (P04439 whole entry, looked up, the tested form may be a part, stated change not applied): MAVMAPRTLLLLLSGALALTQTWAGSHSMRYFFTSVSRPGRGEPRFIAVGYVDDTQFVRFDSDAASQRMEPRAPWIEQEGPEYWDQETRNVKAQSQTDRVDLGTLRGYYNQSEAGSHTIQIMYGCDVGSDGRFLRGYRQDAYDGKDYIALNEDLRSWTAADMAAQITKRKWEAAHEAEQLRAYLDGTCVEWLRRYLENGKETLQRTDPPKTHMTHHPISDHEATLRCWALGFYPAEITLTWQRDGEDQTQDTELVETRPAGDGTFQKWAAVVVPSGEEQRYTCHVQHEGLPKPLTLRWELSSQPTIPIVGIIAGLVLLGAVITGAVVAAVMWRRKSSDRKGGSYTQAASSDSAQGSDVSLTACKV

Chain of DRB1*1101 (P01903 26-254 limits assumed, other chains not shown): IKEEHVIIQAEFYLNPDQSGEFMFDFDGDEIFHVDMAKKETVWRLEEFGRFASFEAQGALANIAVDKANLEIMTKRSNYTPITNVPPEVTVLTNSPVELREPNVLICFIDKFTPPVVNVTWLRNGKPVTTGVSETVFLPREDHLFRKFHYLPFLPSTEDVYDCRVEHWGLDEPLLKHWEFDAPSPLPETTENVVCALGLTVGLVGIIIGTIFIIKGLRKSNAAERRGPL
Chain of DRB1*0301 (P01903 26-254 limits assumed, other chains not shown): as above
Chain of DRB1*1302 (P01903 26-254 limits assumed, other chains not shown): as above

Sequence | IC50 (DR1 (DRB1*0101)) [nM] | IC50 (DR4w4 (DRB1*0401)) [nM] | IC50 (DR7 (DRB1*0701)) [nM] | IC50 (DRB1*0301) [nM] | IC50 (DRB1*0405) [nM] | IC50 (DRB1*0802) [nM] | IC50 (DRB1*0901) [nM] | IC50 (DRB1*1201) [nM] | IC50 (DRB1*1302) [nM] | IC50 (DRB1*1501) [nM] | IC50 (DRB3*0101) [nM] | IC50 (DRB4*0101) [nM] | IC50 (DRB5*0101) [nM] | IC50 (HLA-A1 (A*0101)) [nM] | IC50 (A*2902) [nM] | IC50 (DRB1*1101) [nM] | IC50 (A*3002) [nM]
CIHSTATDLRTLQQM [Peptide 1543.45] | 448 | 14 | 459 | 213 | 370 | 493 | 19000 | 4510 | 2990 | 15000 | > 20000 | 159 | 2450 | – | – | – | –
CSMSYTWTGA [Peptide 1489.14] | – | – | – | – | – | – | – | – | – | – | – | – | – | > 20000 | > 20000 | – | –
DGVSHAQLPARRAEP [Peptide 1543.18] | – | > 20000 | > 20000 | 2480 | > 20000 | > 20000 | > 20000 | > 20000 | > 20000 | > 20000 | > 20000 | 1930 | 392 | – | – | > 20000 | –
EDLRTLQQLFLSTLS [Peptide 1543.21] | 20 | 34 | 390 | 6770 | 582 | 12800 | 15500 | 958 | 7.5 | 141 | > 20000 | 17 | > 20000 | – | – | 279 | –
GCWRQTSREPRESTV [Peptide 1543.46] | 2640 | 1840 | 72 | 902 | 2300 | 356 | 3200 | > 20000 | > 20000 | > 20000 | > 20000 | > 20000 | 4270 | – | – | 144 | –
ITKIQNFRVY [Peptide 9015.0173] | – | – | – | – | – | – | – | – | – | – | – | – | – | 9470 | 1800 | – | –
KERHVNANKRFHNIM [Peptide 1543.59] | 413 | 55 | – | 1350 | 26 | 1230 | 2850 | 260 | 5.2 | 12900 | > 20000 | 8480 | 502 | – | – | 83 | –
LCVNSTASDLRTIQQ [Peptide 1543.15] | 1580 | 63 | 723 | 6230 | 490 | 4380 | > 20000 | 1590 | – | > 20000 | > 20000 | 2110 | > 20000 | – | – | – | –
LTDQLIHMHY [Peptide 9018.0032] | – | – | – | – | – | – | – | – | – | – | – | – | – | 6.6 | – | – | 350
LYCYEQLSDSSDEDE [Peptide 1543.13] | 5690 | 1120 | 9770 | > 20000 | 89 | > 20000 | > 20000 | > 20000 | > 20000 | > 20000 | > 20000 | 12700 | > 20000 | – | – | 3380 | –
LYDQLIHMHY [Peptide 9018.0034] | – | – | – | – | – | – | – | – | – | – | – | – | – | – | 123 | – | 55
NSNTKATLLY [Peptide 1580.16] | – | – | – | – | – | – | – | – | – | – | – | – | – | – | 299 | – | 470
QERPRKLPQLCTELQ [Peptide 1543.22] | > 20000 | 5120 | > 20000 | > 20000 | > 20000 | > 20000 | > 20000 | 11700 | > 20000 | > 20000 | > 20000 | 81 | > 20000 | – | – | > 20000 | –
QRFHNIRGRWTGRCM [Peptide 1543.27] | 36 | 2900 | – | > 20000 | 4470 | 894 | > 20000 | 14600 | 5310 | 17200 | > 20000 | 4550 | 919 | – | – | 574 | –
QSTQVDIRILQELLM [Peptide 1543.11] | 544 | 4560 | 5390 | 2710 | 3990 | – | > 20000 | 2340 | 607 | > 20000 | > 20000 | 180 | > 20000 | – | – | 6480 | –
RHLDKKQRFHNIRGR [Peptide 1543.26] | 556 | 6200 | 591 | 5210 | 1550 | 7720 | > 20000 | > 20000 | > 20000 | > 20000 | > 20000 | > 20000 | 5760 | – | – | – | –
RVCLLFYSKVRKYRY [Peptide 1543.54] | – | 299 | 232 | 71 | 233 | – | 656 | 603 | 89 | 717 | 868 | 7740 | 3850 | – | – | 4260 | –
SEVYDFVFADLRIVY [Peptide 1543.48] | 412 | 620 | 51 | 5.7 | 2920 | 4040 | 33 | 8090 | 46 | – | 558 | 1420 | 2350 | – | – | > 20000 | –
SSSKVSQNY [Peptide 9015.0011] | – | – | – | – | – | – | – | – | – | – | – | – | – | – | 1760 | – | 32
TELNTSLQDIEITCV [Peptide 1543.34] | > 20000 | > 20000 | > 20000 | > 20000 | > 20000 | 5520 | > 20000 | > 20000 | 7070 | > 20000 | > 20000 | 922 | > 20000 | – | – | > 20000 | –
VTFDPIPIHY [Peptide 9015.0153] | – | – | – | – | – | – | – | – | – | – | – | – | – | – | 619 | – | 380
WFDITKWLWY [Peptide 9015.0160] | – | – | – | – | – | – | – | – | – | – | – | – | – | – | – | – | 3390
WFSITNWLWY [Peptide 9015.0159] | – | – | – | – | – | – | – | – | – | – | – | – | – | – | 30 | – | –
YRHYQYSLYGKTLEE [Peptide 1543.58] | 11 | 4.1 | 146 | > 20000 | 25 | 410 | 273 | 12000 | 26 | 2900 | > 20000 | 2540 | 640 | – | – | 953 | –
